For the assay, the system named is NL-RLuc virus. The experiment in a line: Inhibition of HIV replication (NL-RLuc virus, luciferase readout in MT-2 cells). In kind it is cell-based. As to conditions: Human immunodeficiency virus 1, MT2, 120 h, MT-2 cells infected with NL-RLuc virus, 5 days of incubation, 10% FBS, at least 2 experiments. Put shortly: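 MT-2 cells infected with NL4-3-derived virus carrying Renilla luciferase in place of part of nef, grown 5 days with serial compound dilutions in RPMI 1640/10% FBS. Virus growth read as luciferase expression. EC50 from median effect equation, at least 2 experiments.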
Regarding `COc1ccc(CCOc2ncc(-c3cnc(C)c([C@H](OC(C)(C)C)C(=O)O)c3N3CCC(C)(C)CC3)cc2F)cc1` [Example 374, (2S)-2-(tert-butoxy)-2-[4-(4,4-dimethylpiperidin-1-yl)-5′-fluoro-6′-[2-(4-methoxyphenyl)ethoxy]-6-methyl-[3,3′-bipyridine]-5-yl]acetic acid], the midpoint of the response, the EC50, lay at 0.3 nM. Take `Cc1ncc(-c2cnc(OCC(C)(C)C)c(F)c2)c(N2CCC(C)(C)CC2)c1[C@H](OC(C)(C)C)C(=O)O` [Example 375, (2S)-2-(tert-butoxy)-2-[4-(4,4-dimethylpiperidin-1-yl)-6′-(2,2-dimethylpropoxy)-5′-fluoro-6-methyl-[3,3′-bipyridine]-5-yl]acetic acid]: the EC50 (usually the concentration that produces a half-maximal response) turned out to be 8 nM. Next, `Cc1ncc(-c2cnc(OCCC(C)(C)C)c(F)c2)c(N2CCC(C)(C)CC2)c1[C@H](OC(C)(C)C)C(=O)O` [Example 376, (2S)-2-(tert-butoxy)-2-[6′-(3,3-dimethylbutoxy)-4-(4,4-dimethylpiperidin-1-yl)-5′-fluoro-6-methyl-[3,3′-bipyridine]-5-yl]acetic acid]: 5 nM; `CCCCOc1ncc(-c2cnc(C)c([C@H](OC(C)(C)C)C(=O)O)c2N2CCC(C)(C)CC2)cc1F` [Example 377, (2S)-2-(tert-butoxy)-2-[6′-butoxy-4-(4,4-dimethylpiperidin-1-yl)-5′-fluoro-6-methyl-[3,3′-bipyridine]-5-yl]acetic acid]: 4 nM. In turn, `Cc1ncc(-c2cnc(OCc3ccccc3)c(F)c2)c(N2CCC(C)(C)CC2)c1[C@H](OC(C)(C)C)C(=O)O` [Example 378, (2S)-2-[6′-(benzyloxy)-4-(4,4-dimethylpiperidin-1-yl)-5′-fluoro-6-methyl-[3,3′-bipyridine]-5-yl]-2-(tert-butoxy)acetic acid] displayed an EC50 of 2 nM. `Cc1ncc(-c2cnc(O[C@@H](C)Cc3ccccc3)c(F)c2)c(N2CCC(C)(C)CC2)c1[C@H](OC(C)(C)C)C(=O)O` [Example 379, (2S)-2-(tert-butoxy)-2-[4-(4,4-dimethylpiperidin-1-yl)-5′-fluoro-6-methyl-6′-{[(2S)-1-phenylpropan-2-yl]oxy}-[3,3′-bipyridine]-5-yl]acetic acid] gave an EC50 of 2 nM.

Molecule `Cc1ncc(-c2cnc(O[C@H](C)Cc3ccccc3)c(F)c2)c(N2CCC(C)(C)CC2)c1[C@H](OC(C)(C)C)C(=O)O` [Example 380, (2S)-2-(tert-butoxy)-2-[4-(4,4-dimethylpiperidin-1-yl)-5′-fluoro-6-methyl-6′-{[(2R)-1-phenylpropan-2-yl]oxy}-[3,3′-bipyridine]-5-yl]acetic acid] returned an EC50 of 2 nM.

The molecule `Cc1ncc(-c2cnc(OCC(C)C)c(F)c2)c(N2CCC(C)(C)CC2)c1[C@H](OC(C)(C)C)C(=O)O` [Example 381, (2S)-2-(tert-butoxy)-2-[4-(4,4-dimethylpiperidin-1-yl)-5′-fluoro-6-methyl-6′-(2-methylpropoxy)-[3,3′-bipyridine]-5-yl]acetic acid] showed an EC50 of 3 nM.

Turning to `COc1ccccc1CCOc1ncc(-c2cnc(C)c([C@H](OC(C)(C)C)C(=O)O)c2N2CCC(C)(C)CC2)cc1F` [Example 382, (2S)-2-(tert-butoxy)-2-[4-(4,4-dimethylpiperidin-1-yl)-5′-fluoro-6′-[2-(2-methoxyphenyl)ethoxy]-6-methyl-[3,3′-bipyridine]-5-yl]acetic acid], the midpoint of the response, the EC50, lay at 5 nM. Next, `COc1cccc(CCOc2ncc(-c3cnc(C)c([C@H](OC(C)(C)C)C(=O)O)c3N3CCC(C)(C)CC3)cc2F)c1` [Example 383, (2S)-2-(tert-butoxy)-2-[4-(4,4-dimethylpiperidin-1-yl)-5′-fluoro-6′-[2-(3-methoxyphenyl)ethoxy]-6-methyl-[3,3′-bipyridine]-5-yl]acetic acid]: 3 nM; `Cc1ncc(-c2cnc(OC(C)CC(C)C)c(F)c2)c(N2CCC(C)(C)CC2)c1[C@H](OC(C)(C)C)C(=O)O` (stereo partly drawn) [Example 384, (2S)-2-(tert-butoxy)-2-[4-(4,4-dimethylpiperidin-1-yl)-5′-fluoro-6-methyl-6′-[(4-methylpentan-2-yl)oxy]-[3,3′-bipyridine]-5-yl]acetic acid]: 9 nM. Molecule `Cc1ccccc1CCOc1ncc(-c2cnc(C)c([C@H](OC(C)(C)C)C(=O)O)c2N2CCC(C)(C)CC2)cc1F` [Example 385, (2S)-2-(tert-butoxy)-2-[4-(4,4-dimethylpiperidin-1-yl)-5′-fluoro-6-methyl-6′-[2-(2-methylphenyl)ethoxy]-[3,3′-bipyridine]-5-yl]acetic acid] showed an EC50 of 3 nM. Take `CCC(C)COc1ncc(-c2cnc(C)c([C@H](OC(C)(C)C)C(=O)O)c2N2CCC(C)(C)CC2)cc1F` (stereo partly drawn) [Example 386, (2S)-2-(tert-butoxy)-2-[4-(4,4-dimethylpiperidin-1-yl)-5′-fluoro-6-methyl-6′-(2-methylbutoxy)-[3,3′-bipyridine]-5-yl]acetic acid]: the EC50 turned out to be 6 nM. The result for `Cc1ncc(-c2cnc(O)c(F)c2)c(N2CCC(C)(C)CC2)c1[C@H](OC(C)(C)C)C(=O)O` [Example 387, (2S)-2-(tert-butoxy)-2-[4-(4,4-dimethylpiperidin-1-yl)-5′-fluoro-6′-hydroxy-6-methyl-[3,3′-bipyridine]-5-yl]acetic acid] reads 4000 nM; that for `Cc1ncc(-c2cnc(OC[C@@H](C)c3ccccc3)c(F)c2)c(N2CCC(C)(C)CC2)c1[C@H](OC(C)(C)C)C(=O)O` [Example 388, (2S)-2-(tert-butoxy)-2-[4-(4,4-dimethylpiperidin-1-yl)-5′-fluoro-6-methyl-6′-[(2S)-2-phenylpropoxy]-[3,3′-bipyridine]-5-yl]acetic acid], 3 nM.

Molecule `CCCOc1ncc(-c2cnc(C)c([C@H](OC(C)(C)C)C(=O)O)c2N2CCC(C)(C)CC2)cc1F` [Example 389, (2S)-2-(tert-butoxy)-2-[4-(4,4-dimethylpiperidin-1-yl)-5′-fluoro-6-methyl-6′-propoxy-[3,3′-bipyridine]-5-yl]acetic acid] showed an EC50 of 3 nM.

The molecule `Cc1ncc(-c2cnc(OCCc3cc(F)cc(F)c3)c(F)c2)c(N2CCC(C)(C)CC2)c1[C@H](OC(C)(C)C)C(=O)O` [Example 390, (2S)-2-(tert-butoxy)-2-{6′-[2-(3,5-difluorophenyl)ethoxy]-4-(4,4-dimethylpiperidin-1-yl)-5′-fluoro-6-methyl-[3,3′-bipyridine]-5-yl}acetic acid] gave an EC50 of 2 nM. Next, `COc1ccc(CCOc2ncc(-c3cnc(C)c([C@H](OC(C)(C)C)C(=O)O)c3N3CCC(C)(C)CC3)cc2F)cc1C` [Example 391, (2S)-2-(tert-butoxy)-2-[4-(4,4-dimethylpiperidin-1-yl)-5′-fluoro-6′-[2-(4-methoxy-3-methylphenyl)ethoxy]-6-methyl-[3,3′-bipyridine]-5-yl]acetic acid]: 4 nM; `Cc1ncc(-c2cnc(OCCc3ccc(F)c(F)c3)c(F)c2)c(N2CCC(C)(C)CC2)c1[C@H](OC(C)(C)C)C(=O)O` [Example 392, (2S)-2-(tert-butoxy)-2-{6′-[2-(3,4-difluorophenyl)ethoxy]-4-(4,4-dimethylpiperidin-1-yl)-5′-fluoro-6-methyl-[3,3′-bipyridine]-5-yl}acetic acid]: 1 nM; `Cc1ncc(-c2cnc(OCCc3c(F)cccc3F)c(F)c2)c(N2CCC(C)(C)CC2)c1[C@H](OC(C)(C)C)C(=O)O` [Example 393, (2S)-2-(tert-butoxy)-2-{6′-[2-(2,6-difluorophenyl)ethoxy]-4-(4,4-dimethylpiperidin-1-yl)-5′-fluoro-6-methyl-[3,3′-bipyridine]-5-yl}acetic acid]: 2 nM. As for `Cc1ncc(-c2cnc(OCCCC(C)C)c(F)c2)c(N2CCC(C)(C)CC2)c1[C@H](OC(C)(C)C)C(=O)O` [Example 394, (2S)-2-(tert-butoxy)-2-[4-(4,4-dimethylpiperidin-1-yl)-5′-fluoro-6-methyl-6′-[(4-methylpentyl)oxy]-[3,3′-bipyridine]-5-yl]acetic acid], the response was half-maximal at 3 nM (EC50).

`Cc1ncc(-c2cnc(OCCc3ccc(Cl)cc3)c(F)c2)c(N2CCC(C)(C)CC2)c1[C@H](OC(C)(C)C)C(=O)O` [Example 395, (2S)-2-(tert-butoxy)-2-{6′-[2-(4-chlorophenyl)ethoxy]-4-(4,4-dimethylpiperidin-1-yl)-5′-fluoro-6-methyl-[3,3′-bipyridine]-5-yl}acetic acid] had an EC50 of 2 nM. For `Cc1ncc(-c2cnc(O[C@H](C)c3ccccc3)c(F)c2)c(N2CCC(C)(C)CC2)c1[C@H](OC(C)(C)C)C(=O)O` [Example 396, (2S)-2-(tert-butoxy)-2-[4-(4,4-dimethylpiperidin-1-yl)-5′-fluoro-6-methyl-6′-[(1R)-1-phenylethoxy]-[3,3′-bipyridine]-5-yl]acetic acid], it took 2 nM to reach a half-maximal effect (EC50). In the case of `Cc1cc(CCOc2ncc(-c3cnc(C)c([C@H](OC(C)(C)C)C(=O)O)c3N3CCC(C)(C)CC3)cc2F)ccc1F` [Example 397, (2S)-2-(tert-butoxy)-2-[4-(4,4-dimethylpiperidin-1-yl)-5′-fluoro-6′-[2-(4-fluoro-3-methylphenyl)ethoxy]-6-methyl-[3,3′-bipyridine]-5-yl]acetic acid], the EC50 is 2 nM. The result for `Cc1cc(F)ccc1CCOc1ncc(-c2cnc(C)c([C@H](OC(C)(C)C)C(=O)O)c2N2CCC(C)(C)CC2)cc1F` [Example 398, (2S)-2-(tert-butoxy)-2-[4-(4,4-dimethylpiperidin-1-yl)-5′-fluoro-6′-[2-(4-fluoro-2-methylphenyl)ethoxy]-6-methyl-[3,3′-bipyridine]-5-yl]acetic acid] reads 2 nM.

The molecule `COc1ccc(CCOc2ncc(-c3cnc(C)c([C@H](OC(C)(C)C)C(=O)O)c3N3CCC(C)(C)CC3)cc2F)c(C)c1` [Example 399, (2S)-2-(tert-butoxy)-2-[4-(4,4-dimethylpiperidin-1-yl)-5′-fluoro-6′-[2-(4-methoxy-2-methylphenyl)ethoxy]-6-methyl-[3,3′-bipyridine]-5-yl]acetic acid] registered an EC50 of 2 nM.

Source of the values: patent US20200055839A1 (priority 2017, published 2020).
